Data from EP4596561A1, “PHOSPHORUS-CONTAINING COMPOUND, PHARMACEUTICAL COMPOSITION AND USE THEREOF” (Suzhou Genhouse Bio Co., Ltd., priority 2022, dated 2024).
Like-named read-outs stand apart in the source and are kept apart here.

Legend:
[1] = system: MSTO-211H (NF2 wide-type); experiment: Inhibition of cell proliferation (CellTiter-Lumi); format: cell-based; settings: Homo sapiens, 72 h + another 72 h treatment
Protocol: (§1) NCI-H2052 (NF2 mutant), NCI-H226 (NF2 mutant), NCI-H2452 (NF2 wide-type), NCI-H28 (NF2 wide-type), and MSTO-211H (NF2 wide-type) cells were cultured in RPMI 1640 complete media.
(§2) The normally growing cells described above were digested with a trypsin cell-digesting solution, centrifuged, counted, and then plated in a 96-well plate at a density of 1000 cells per well. Administration was performed 24 h after the cell plating. Inhibitors at different concentration gradients were added at 10 µL per well, and three replicate wells were set for each concentration point. The starting concentration was 20 µM and diluted 8 times with a 4-fold gradient. A corresponding negative control group treated with 0.1% DMSO was also set up. After 72 h of drug treatment, the cell culture plate to be tested was taken out of the incubator. The culture medium in the 96-well plate was pipetted, and 190 µL of fresh RPMI 1640 complete medium was added. Another administration was performed, and the cells were cultured for another 72 h. The 96-well plate was taken out and allowed to equilibrate at room temperature for 10 min. The medium in the 96-well plate was pipetted, and 200 µL of CellTiter-Lumi™ luminescent cell viability detection solution (mixed with a medium in a ratio of 1:1) was added. After shaking for two minutes, the mixture was reacted at room temperature for 10 min. Then, 150 µL of liquid was pipetted from the transparent 96-well plate and transferred to a white 96-well plate for chemiluminescence reading. The background value was subtracted from the value for each well to calculate the cell survival rate. Survival rate (%) = […]. Sample is the chemiluminescence of the drug-treated group, and Vehicle is the […] of the DMSO control group. A sigmoidal dose-survival rate curve was plotted using a non-linear regression model in the GraphPad Prism 7.0 software, and the IC50 values or GI50 values were calculated.

[2] = Pharmacokinetic test in mice (low dose); format: in vivo, Balb/c mice; settings: mouse, plasma, mice; for AUC(0-t): read-out: AUClast; for half-life: read-out: T1/2 (converted)
Protocol: The compounds of the present disclosure were administered to Balb/c mice by single intravenous injection and oral gavage, and the plasma of the mice at each time point was collected. The concentration of the compounds to be tested in BALB/C plasma was detected using the LC-MS/MS analysis method, and pharmacokinetic analysis was performed.
The mixture was vortexed, shaken, and ultrasonicated. The remaining volume of 25% sulfobutylether-β-cyclodextrin (sterilized) was added to prepare the final concentration solution or suspension.
Intravenous injection formulations will be directly administered in animal experiments without filtration. The IV drug preparation vials were disinfected in an infrared sterilization cabinet one day in advance.
Intravenous injection: Administration was performed via the tail vein. After the needle was inserted, the syringe was slowly […].
Gavage: Gavage needle and syringe of an appropriate type were selected. The gavage needle was inserted from the root of the tongue into the esophagus until it reached near the cardia of the stomach, then the drug formulation was injected, and the gavage needle was withdrawn. When disposable plastic gavage needles were used, one needle was used for each group.
At each time point, 60 µL of whole blood was collected from the submandibular vein or tail vein (except for the IV group). The blood sample was added to a pre-cooled anticoagulant blood collection tube containing anticoagulant EDTA-K2 (1 µL, 15% EDTA-K2 solution), placed on wet ice, and centrifuged (3000 g, 4 °C, 10 min) within 1 h. The plasma was immediately collected after centrifugation, transferred to an EP tube, and stored at -90 °C to -60 °C.
Plasma concentration detection: A developed LC-MS/MS method was used to detect the compounds in plasma.
The plasma concentration-time data were analyzed using a non-compartmental model in the Phoenix® WinNonlin® (Version 8.2, Pharsight, Mountain View, CA).

[3] = system: YAP-TEAD transcription complex; experiment: YAP-TEAD reporter gene assay (dual luciferase, stably transfected 293T cells); format: cell-based; settings: Homo sapiens, HEK-293T; 293T reporter cells, 24 h of drug treatment; read-out: IC50
Protocol: YAP-TEAD reporter gene The YAP-TEAD reporter gene assay was performed as follows. Firstly, the 8xGTIIC promoter sequence ([…] GTACTGTTGGTAAA) was constructed into a pGL4.20(luc2-Puro) plasmid, and the TK promoter ([…]) unrelated to the hippo pathway was constructed into a pGL4.78(hRlucCP/Hygro) plasmid, thereby constructing stably transfected 293T cells that can stably and continuously express the transcriptional activity of the YAP-TEAD transcription complex. After selection and identification of individual clones, the clones were grown and maintained in a DMEM medium containing 10% fetal bovine serum, penicillin-streptomycin solution, 1 µg/mL puromycin, and 150 µg/mL hygromycin. To perform reporter gene assays with the compounds to be tested, the well-growing cells described above were plated in a 384-well plate at a cell density of 3000 cells per well, with 90 µL per well. The periphery was sealed with an appropriate amount of PBS to prevent evaporation of water from the peripheral wells. Administration was performed on the next day after the cell plating. The test compounds were added at different concentration gradients, and three replicate wells were set for each concentration point. The compound concentration started at 5 µM and was diluted seven times with a 5-fold gradient. A corresponding negative control group treated with DMSO was also set up. After 24 h of drug treatment, the detection reagents were prepared first. The Dual-Lumi™ Firefly luciferase detection reagent and Dual-Lumi™ Renilla luciferase detection buffer were dissolved and brought to room temperature. […]. According to the amount of 100 µL of Dual-Lumi™ Renilla luciferase detection working solution required for the detection of each sample, an appropriate amount of Dual-Lumi™ Renilla luciferase detection working solution was prepared. […]. The cell culture plate was taken out and allowed to equilibrate at room temperature for 10 min (usually no more than 30 min). Then, 100 µL of Dual-Lumi™ Firefly luciferase detection reagent was added to each well of a 96-well plate (25 µL per well for the 384-well plate), and the mixture was mixed well. The mixture was then incubated at room temperature (about 25 °C) for 10 min to stabilize the luminescent signal, and then chemiluminescence was detected using a multimode microplate reader with a chemiluminescence detection function. Subsequently, the detection of Renilla luciferase began. Firstly, 100 µL of Dual-Lumi™ Renilla luciferase detection working solution was added to each well of a […] (25 µL per well for the 384-well plate), and the mixture was mixed well. The mixture was then incubated at room temperature (about 25 °C) for 10 min to stabilize the luminescent signal. Finally, chemiluminescence was detected using a multimode microplate reader with a chemiluminescence detection function. The obtained data were analyzed using GraphPad Prism 7.0 software. A sigmoidal dose-survival rate curve was plotted using a non-linear regression model, and the IC50 values were calculated.

NCI-H28 (NF2 wide-type) = experiment: Inhibition of cell proliferation (CellTiter-Lumi); format: cell-based; settings: Homo sapiens, 72 h + another 72 h treatment
Protocol: as §1
as §2, with “The medium in the 96-well plate was pipetted, and 200 µL of CellTiter-Lumi™ luminescent cell viability detection solution (mixed with a medium in a ratio of 1:1) was added.” left out

[4] = system: NCI-H2452 (NF2 wide-type); experiment: Inhibition of cell proliferation (CellTiter-Lumi); format: cell-based; settings: Homo sapiens, 72 h + another 72 h treatment
Protocol: as §1
as §2, with “The medium in the 96-well plate was pipetted, and 200 µL of CellTiter-Lumi™ luminescent cell viability detection solution (mixed with a medium in a ratio of 1:1) was added.” left out

- MRT ([2]; IV 2 mg/kg): 6.4 h
- AUC(0-t) ([2]; IV 2 mg/kg): 9.23 µM·h
- clearance ([2]; IV 2 mg/kg, read-out: Cl (converted)): 8.33 mL/min/kg
- half-life ([2]; IV 2 mg/kg): 6.3 h
- MRT ([2]; PO 10 mg/kg): 5.3 h
- bioavailability ([2]; PO 10 mg/kg vs IV 2 mg/kg, read-out: F%): 163%
- AUC(0-t) ([2]; PO 10 mg/kg): 79 µM·h
- Cmax ([2]; PO 10 mg/kg, read-out: Cmax): 9.36 µM
- half-life ([2]; PO 10 mg/kg): 3.3 h
- IC50 [3]: 123 nM
- IC50 (NCI-H28 (NF2 wide-type)): > 1250 nM
- IC50 [4]: > 5000 nM
SMILES: CP(C)(=O)c1ccc2c(c1)c1ncccc1n2-c1ccc(C(F)(F)F)cc1 [Example 4]
- IC50 [1]: > 1250 nM
